Laboratory results as given in US7414068B2, “Benzopyran derivatives substituted with secondary amines including tetrazole, method for the preparation thereof and pharmaceutical compositions containing them” (Dongbu Hannong Chemical Co., Ltd., priority 2002, dated 2008).
Read-outs that look alike come from different tables or passages of the source.

Key:
[1] = tested on: new born rats; assay: Protective effect on ischemic-hypoxic brain injury (MRS); type: in vivo, rat; settings: for Lip/Cr / Lip/NAA: MRS
Excerpt: By using the said report, the protective effect on brain damage induced by hypoxia […] was investigated. [Van der A. Toorn et al. Magnetic Resonance in Medicine, 1996, 36, 914-922]. It was reported that the lipid peak was increased in MRS by ischemic neuronal cell injury due to the destruction of cell membrane including blood-brain barrier. Also, it was reported that increase of lipid concentration was correlated to apoptosis. [A. Bizzi et al., Magnetic Resonance Imaging, 1996, 14, 581-592]. Therefore, it was reported that Lipid/NAA and Lipid/Cr obtained by comparing lipid with N-acetylaspartate (NAA) and creatine (Cr) as marker of neuronal cell was correlated to morphological changes and severity of apoptosis on hypoxic brain damage.
In new born rats (within 7 days, 10˜15 g), left carotid artery were intermitted for 3 hours to induce hypoxia. Test compounds were intraperitoneally injected before 1 hour of hypoxia. […] of which the carotid artery was intermitted was used as ischemic-hypoxic model, right eye of which the carotid artery was not intermitted was used as hypoxic model. Magnetic resonance spectrum was obtained from both models, after histological test, accomplished in one day from damage. From the said result, Lipid/NAA or Lipid/Cr was measured. Also, viability and morphological score by macroscopic observation of infarct volume was calculated.

[2] = tested on: cortical neuron cells; assay: Protective effect on iron-induced neuronal cell injury (LDH release); type: cell-based; settings: FeSO4 50 μM; for IC50: LDH
Summary of the method: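 Embryonic (day 17–18) cortical neurons cultured 7–9 days, serum lowered to 0.2%, pretreated 30 min with compound (DMSO ≤0.1%), then exposed to 50 μM FeSO4 for 24 h. LDH released to medium measured; protection expressed as LDH reduction versus vehicle control.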

[3] = tested on: Sprague-Dawley Rat; settings: 30 mg/kg; for Infarction volume Medium(%): four times to abdominal cavity, 24 hours after operation
Procedure: Male rat (Sprague-Dawley Rat, 350±50 g, Samyook) was anesthetized by administration of Pentobarbital sodium 40 mg/Kg. PE-19 tubing was inserted to the femoral vein and the artery, left carotid artery was exposed. Before the operation, heparin sulfate 20 μg was injected to the peritoneal cavity. Blood pressure measuring device was inserted to the femoral artery for the continuous measurement of arterial pressure. Blood (10 ml) was collected from the femoral vein to decrease blood pressure to 30 mmHg. If blood pressure is not decreased to 100 mmHg by collection of blood (7 ml), it is evaluated that sympathetic tone is very high.
With blood pressure maintaining to be 30 mmHg, left carotid artery was closed by aneurysm clamp for 20 min to induce ischemia. Reperfusion was accomplished by the collected blood and 0.84% bicarbonate saline (5 ml). Body temperature of rats was constantly maintained to be 37±0.5° C., by using thermal blanket and incandescent light bulbs during the ischemia. After the operation, in recovering period, body temperature was constantly maintained for more than 2 hours. If rats were recovered entirely, they were transferred to animal laboratory. Condition of animal laboratory, such as temperature, humidity and light cycle was constantly maintained to be 27° C., 60% and […], respectively.
After 24 hours from the operation, rats were sacrificed. Then brain was enucleated from rat within 3 min. Enucleated brain was excised on the ice at the interval 2 mm by using brain matrix to produce six coronal sections. The said coronal sections were dyed in 2% 2,3,5-triphenyltetrazolium chloride solution at 37° C. for 30 min. The said dyed coronal section was developed and printed. Thereafter, the ratio of necrosis area to brain area was measured by using Image Analyzer.
Otherwise, test compounds were four times administrated to abdominal cavity at a dose 30 mg/kg. […]
The protective effect on brain damage induced by brain ischemia-reperfusion was evaluated by calculating reduction of necrosis area to that of brain for a control group.

[4] = Hypoxic, 50 mg/kg intraperitoneally

COC(OC)[C@@]1(C)Oc2ccc(N)cc2[C@H](N(Cc2nnn(C)n2)c2ccc(Cl)cc2)[C@H]1O [Example 11, (2S,3R,4S)-6-amino-4-[N-(4-chlorophenyl)-N-(2-methyl-2H-tetrazol-5-ylmethyl)amino]-3-hydroxy-2-methyl-2-dimethoxymethyl-3,4-dihydro-2H-1-benzopyran]
Survival (%) ([1]; 50 mg/kg): 79% | Survival (animals surviving/total) ([1]; 50 mg/kg): 19/24 | Morphological score ([1]; 50 mg/kg, macroscopic observation of infarct volume): 1.4 | Lip/Cr [1, 4]: 1.55 | Lip/NAA [1, 4]: 1.69 | Lip/NAA ([1]; Ischemic-hypoxic, 50 mg/kg intraperitoneally 1 hour before hypoxia): 5.43 | Lip/Cr ([1]; Ischemic-hypoxic, 50 mg/kg intraperitoneally): 5.16 | protective effect on neuron cell: Inhibition (%, 30 μM compound addition) ([2]; 30 μM compound, 24 hours, LDH reduction vs control): 93% | IC50 ([2]; Cortical neurone, 24 h): < 2000 nM | IC50 ([2]; 24 hours): 2000 nM | Infarction volume Medium(%) [3]: 21.5 ± 2.6% | Infarction volume Medium(%) ([3]; listed as compound of formula 11): 21.5% | Infarction volume Decrease(%) ([3]; relative to control group): 46.3%
